Measured values taken from ChEMBL document CHEMBL6121019, “Design, synthesis and biological evaluation of bisnoralcohol derivatives as novel IRF4 inhibitors for the treatment of multiple myeloma” (Eur J Med Chem, 2025).
Calls of active or inactive are those of the source. No cut-off for these calls is given here.

What was measured:
NCI-H929 [1] = test: Induction of cell cycle arrest in human NCI-H929 cells assessed as accumulation of cells at G2 phase at 0.5 uM measured after 24 hrs by flow cytometry analysis (reference value: 13.37%); type: functional
NCI-H929 [2] = test: Induction of cell cycle arrest in human NCI-H929 cells assessed as accumulation of cells at G2 phase at 0.125 uM measured after 24 hrs by flow cytometry analysis (reference value: 13.37%); type: functional
MM.1R [3] = test: Induction of cell cycle arrest in human MM1.R cells assessed as inhibition of cyclin E1 protein expression at 0.1 to 1 uM; type: functional, cell-based; conditions: dose 0.1-1 µM
MM.1R [4] = test: Downregulation of CANX expression in human MM1.R cells measured after 24 hrs by qRT-PCR analysis; type: functional, cell-based; conditions: dose 0.125-1 µM
MM.1R [5] = test: Induction of cell cycle arrest in human MM1.R cells assessed as inhibition of CDC2 protein expression at 0.1 to 1 uM; type: functional, cell-based; conditions: dose 0.1-1 µM
HaCaT = test: Effect on IRF4 expression in human HaCaT cells by Western blot analysis; type: functional, cell-based
NCI-H929 [6] = test: Antiproliferative activity against human NCI-H929 cells assessed as inhibition of cell viability measured after 72 hrs by MTS assay; type: functional, cell-based; conditions: NCI-H929, 72 h
NCI-H929 [7] = test: Antitumor activity against human NCI-H929 cells xenografted in Balb/C nude mouse model assessed as reduction in Ki67 expression at 25 mg/kg by immunohistochemical staining based analysis; type: functional, organism-based
[8] = AUC (0 to infinity) in ICR mouse plasma at 1.0 mg/kg, iv; type: ADME, organism-based
NCI-H929 [9] = test: Antiproliferative activity against human NCI-H929 cells with siRNA mediated IRF4#2 knockdown at 0.125 to 1 uM measured upto 5 days by MTS assay; type: functional, cell-based; conditions: dose 0.125-1 µM, time <= 5.0 day
NCI-H929 [10] = test: Downregulation of CCNC expression in human NCI-H929 cells measured after 24 hrs by qRT-PCR analysis; type: functional, cell-based; conditions: dose 0.125-1 µM
RPMI-8226 [11] = test: Effect on IRF4 expression in human RPMI-8226 cells by Western blot analysis; type: functional, cell-based
NCI-H929 [12] = test: Induction of cell cycle arrest in human NCI-H929 cells assessed as accumulation of cells at S phase at 0.125 uM measured after 24 hrs by flow cytometry analysis (reference value: 32.14%); type: functional
[13] = Toxicity in Balb/C nude mouse assessed as change in body weight at 12.5 to 25 mg/kg administered once daily and measured every three days for 34 days; type: organism-based; conditions: in vivo, 816 h, dose 12.5-25 mg/kg, time 34 day
MM.1R [14] = test: Induction of DNA damage in human MM1.R cells assessed as increase in gammaH2AX expression at 0.1 to 1 uM by Western blot analysis; type: functional, cell-based; conditions: dose 0.1-1 µM
MM.1R [15] = test: Downregulation of CMYC expression in human MM1.R cells measured after 24 hrs by qRT-PCR analysis; type: functional, cell-based; conditions: dose 0.125-1 µM
[16] = Terminal elimination half life in ICR mouse plasma at 1.0 mg/kg, iv; type: ADME, organism-based; conditions: read-out: beta t1/2 (converted)
NCI-H929 [17] = test: Downregulation of CANX expression in human NCI-H929 cells measured after 24 hrs by qRT-PCR analysis; type: functional, cell-based; conditions: dose 0.125-1 µM
RPMI-8226 [18] = test: Antiproliferative activity against human RPMI-8226 cells overexpressing IRF4 at 0.125 to 1 uM measured after 72 hrs by MTS assay; type: functional, cell-based; conditions: dose 0.125-1 µM
[19] = Oral bioavailability in ICR mouse plasma at 10 mg/kg; type: ADME, organism-based
[20] = Apparent volume of distribution in ICR mouse plasma at 1.0 mg/kg, iv; type: ADME, organism-based; conditions: read-out: Vz
MM.1R [21] = test: Antiproliferative activity against human MM1.R cells with siRNA mediated IRF4#1 knockdown at 0.125 to 1 uM measured upto 5 days by MTS assay; type: functional, cell-based; conditions: dose 0.125-1 µM, time <= 5.0 day
MM.1R [22] = test: Induction of cell cycle arrest in human MM1.R cells assessed as inhibition of cyclin B1 protein expression at 0.1 to 1 uM; type: functional, cell-based; conditions: dose 0.1-1 µM
RPMI-8226 [23] = test: Antiproliferative activity against human RPMI-8226 cells assessed as inhibition of cell viability measured after 72 hrs by MTS assay; type: functional, cell-based; conditions: RPMI-8226, 72 h
MM.1R [24] = test: Downregulation of HK2 expression in human MM1.R cells measured after 24 hrs by qRT-PCR analysis; type: functional, cell-based; conditions: dose 0.125-1 µM
MM.1R [25] = test: Downregulation of CCNC expression in human MM1.R cells measured after 24 hrs by qRT-PCR analysis; type: functional, cell-based; conditions: dose 0.125-1 µM
[26] = AUC (0 to t) in ICR mouse plasma at 10 mg/kg, po; type: ADME, organism-based
[27] = Selectivity ratio IC50 for human RPMI-8226 cells to IC50 for human MM1.R cells; type: toxicity
MM.1R [28] = test: Effect on IRF4 expression in human MM1.R cells with siRNA mediated IRF4 knockdown by Western blot analysis; type: functional, cell-based
NCI-H929 [29] = test: Effect on IRF4 expression in human NCI-H929 cells by Western blot analysis; type: functional, cell-based
NCI-H929 [30] = test: Antitumor activity against human NCI-H929 cells xenografted in Balb/C nude mouse model assessed as inhibition of inhibition of cyclin D1 expression at 25 mg/kg by Western blot analysis; type: functional, organism-based
NCI-H929 [31] = test: Antiproliferative activity against human NCI-H929 cells with siRNA mediated IRF4 knockdown measured upto 5 days by MTS assay; type: functional, cell-based; conditions: time <= 5.0 day
[32] = Toxicity in Balb/C nude mouse assessed as changes in main organ at 12.5 to 25 mg/kg administered once daily and measured every three days for 34 days by H and E staining based analysis; type: organism-based; conditions: in vivo, 816 h, dose 12.5-25 mg/kg, time 34 day
NCI-H929 [33] = test: Antitumor activity against human NCI-H929 cells xenografted in Balb/C nude mouse model assessed as inhibition of Akt phosphorylation level at 25 mg/kg by Western blot analysis; type: functional, organism-based
[34] = Tmax in ICR mouse plasma at 10 mg/kg, po; type: ADME, organism-based
NCI-H929 [35] = test: Antiproliferative activity against human NCI-H929 cells assessed as inhibition of 3D clone forming ability measured after 2 to 3 weeks; type: functional, cell-based; conditions: dose 0.125-1 µM, time 2-3 weeks
[36] = Potency index, ratio of IC50 for lenalidomide to test compound IC50 for antiproliferative activity against human RPMI-8226 cells assessed as inhibition of cell growth measured after 72 hrs by MTS assay; type: functional
NCI-H929 [37] = test: Induction of DNA damage in human NCI-H929 cells assessed as increase in gammaH2AX expression at 0.1 to 1 uM by Western blot analysis; type: functional, cell-based; conditions: dose 0.1-1 µM
[38] = Tmax in ICR mouse plasma at 1.0 mg/kg, iv; type: ADME, organism-based
NCI-H929 [39] = test: Induction of cell cycle arrest in human NCI-H929 cells assessed as inhibition of CMYC protein expression at 0.1 to 1 uM; type: functional, cell-based; conditions: dose 0.1-1 µM
[40] = Antiproliferative activity against human HAF cells assessed as inhibition of cell viability measured after 72 hrs by MTS assay; type: toxicity, cell-based
NCI-H929 [41] = test: Induction of cell cycle arrest in human NCI-H929 cells assessed as accumulation of cells at G2 phase at 0.25 uM measured after 24 hrs by flow cytometry analysis (reference value: 13.37%); type: functional
[42] = Potency index, ratio of IC50 for lenalidomide to test compound IC50 for antiproliferative activity against human NCI-H929 cells assessed as inhibition of cell growth measured after 72 hrs by MTS assay; type: functional

## COc1ccc(NC(=O)[C@@H](C)[C@H]2CC[C@H]3[C@@H]4C(=O)C=C5C(C)(C)C(=O)C(C#N)=C[C@]5(C)[C@H]4CC[C@]23C)cc1
NCI-H929 [1]
  Activity: 10.56%
NCI-H929 [2]
  Activity: 11.45%
MM.1R [3]
  Activity: Active
MM.1R [4]
  Activity: Active
MM.1R [5]
  Activity: Active
HaCaT
  Activity: inactive
NCI-H929 [6]
  IC50: 80 nM
NCI-H929 [7]
  Activity: Active
[8]
  AUC(0-inf): 86 ng·h/mL
NCI-H929 [9]
  Activity: Active
NCI-H929 [10]
  Activity: Active
RPMI-8226 [11]
  Activity: Active; Compound Showed Low Expression
NCI-H929 [12]
  Activity: 30.67%
[13]
  Activity: Non-toxic
MM.1R [14]
  Activity: Active
MM.1R [15]
  Activity: Active
[16]
  half-life: 75 min
NCI-H929 [17]
  Activity: Active
RPMI-8226 [18]
  Activity: Active
[19]
  bioavailability: 53.9%
[20]
  Vd: 20.8 L/kg
MM.1R [21]
  Activity: Active
MM.1R [22]
  Activity: Active
RPMI-8226 [23]
  IC50: 1190 nM
MM.1R [24]
  Activity: Active
MM.1R [25]
  Activity: Active
[26]
  AUC(0-t): 285 ng·h/mL
[27]
  Ratio IC50: 10.8
MM.1R [28]
  Activity: Active
NCI-H929 [29]
  Activity: Active
NCI-H929 [30]
  Activity: Active
NCI-H929 [31]
  Activity: Active
[32]
  Activity: Non-toxic
NCI-H929 [33]
  Activity: Active
[34]
  Tmax: 31.8 min
NCI-H929 [35]
  Activity: Dose-dependent-effect
[36]
  Ratio IC50: 30
NCI-H929 [37]
  Activity: Active
[38]
  Tmax: 4.8 min
NCI-H929 [39]
  Activity: Active
[40]
  IC50 at 72 h: > 100 µM
NCI-H929 [41]
  Activity: 14.14%
[42]
  Ratio IC50: 30
